# Measured values reported in ChEMBL document CHEMBL1158675, “A bioactive secosterol with an unusual A- and B-ring oxygenation pattern isolated from an Indonesian soft coral Lobophytum sp” (J Nat Prod, 1998).
# Key:
# [1] = test system: K562; experiment: Cytotoxicity against human K562 cells; type: functional, cell-based
# [2] = test system: A2780; experiment: Cytotoxicity against human A2780 cells; type: functional, cell-based
smiles,measurement,setting,value
CC(C)[C@@H](C)[C@@]1(C)C[C@@H]1[C@@H](C)[C@H]1CC[C@@H]([C@H]2C(=O)[C@@]3(C)CC[C@H](O)C[C@@]34O[C@H]4[C@@H]2O)[C@]1(C)CCO,IC50,[1],7.1 µM
same,IC50,[2],6.3 µM
